Source: the NIST ThermoML archive (doi:10.1021/je200830j)

Legend:
[1] = xn = mol fraction of the nth substance listed; conditions: 101 kPa, Liquid, Capillary tube (Ostwald / Ubbelohde) method
[2] = 101.33 kPa, Liquid; for mass density: Vibrating tube method; for viscosity: Vibrating wire viscometry

CCCCCCCCCCCCCC[P+](CCCCCC)(CCCCCC)CCCCCC.N#C[N-]C#N [tetradecyl(trihexyl)phosphonium dicyanamide] + O
[1]
Conditions | viscosity [mPa·s]
298.17 K, x2 = 0.275 | 372.8
298.17 K, x2 = 0.4 | 362.7
303.11 K, x2 = 0.198 | 284.53
303.13 K, x2 = 0.275 | 282.44
308.09 K, x2 = 0.275 | 217.15
317.92 K, x2 = 0.198 | 135.23

CCCCCCCCCCCCCC[P+](CCCCCC)(CCCCCC)CCCCCC.N#C[N-]C#N [tetradecyl(trihexyl)phosphonium dicyanamide]
[2]
Conditions | mass density [kg/m3] | viscosity [mPa·s]
290.66 K | 902.3 | –
293.14 K | – | 505.9
293.15 K | 900.9 | –
293.16 K | 900.9 | –
295.65 K | 899.5 | –
295.66 K | 899.5 | –
298.15 K | 898 | –
298.16 K | 898 | –
298.2 K | – | 378
300.65 K | 896.6 | –
300.66 K | 896.6 | –
303.15 K | 895.1 | –
303.16 K | 895.1 | –
303.18 K | – | 288
305.65 K | 893.7 | –
308.15 K | 892.3 | –
308.16 K | 892.3 | –
308.2 K | – | 219.9
310.65 K | 890.9 | –
310.66 K | 890.9 | –
313.15 K | 889.5 | –
313.16 K | 889.5 | –
313.18 K | – | 171.1
315.65 K | 888.1 | –
318.15 K | 886.7 | –
318.19 K | – | 134.4
320.65 K | 885.3 | –
